Laboratory results reported in US12637410B2, “Vesicular monoamine transporter-2 ligands and their use in the treatment of psychostimulant abuse” (priority 2016, dated 2026).
Like-named read-outs stand apart in the source and are kept apart here.

Legend:
hERG channel = biological target: T1, hERG channel (Homo sapiens, UniProt Q12809); test: [3H]Dofetilide binding assay, HEK-293 cell membrane preparation; conditions: hERG Binding: Mean Ki (nM)
T1 construct: purchased; host or cells: HEK-293 cells stably expressing hERG (membranes)
T1 sequence (Q12809 whole entry): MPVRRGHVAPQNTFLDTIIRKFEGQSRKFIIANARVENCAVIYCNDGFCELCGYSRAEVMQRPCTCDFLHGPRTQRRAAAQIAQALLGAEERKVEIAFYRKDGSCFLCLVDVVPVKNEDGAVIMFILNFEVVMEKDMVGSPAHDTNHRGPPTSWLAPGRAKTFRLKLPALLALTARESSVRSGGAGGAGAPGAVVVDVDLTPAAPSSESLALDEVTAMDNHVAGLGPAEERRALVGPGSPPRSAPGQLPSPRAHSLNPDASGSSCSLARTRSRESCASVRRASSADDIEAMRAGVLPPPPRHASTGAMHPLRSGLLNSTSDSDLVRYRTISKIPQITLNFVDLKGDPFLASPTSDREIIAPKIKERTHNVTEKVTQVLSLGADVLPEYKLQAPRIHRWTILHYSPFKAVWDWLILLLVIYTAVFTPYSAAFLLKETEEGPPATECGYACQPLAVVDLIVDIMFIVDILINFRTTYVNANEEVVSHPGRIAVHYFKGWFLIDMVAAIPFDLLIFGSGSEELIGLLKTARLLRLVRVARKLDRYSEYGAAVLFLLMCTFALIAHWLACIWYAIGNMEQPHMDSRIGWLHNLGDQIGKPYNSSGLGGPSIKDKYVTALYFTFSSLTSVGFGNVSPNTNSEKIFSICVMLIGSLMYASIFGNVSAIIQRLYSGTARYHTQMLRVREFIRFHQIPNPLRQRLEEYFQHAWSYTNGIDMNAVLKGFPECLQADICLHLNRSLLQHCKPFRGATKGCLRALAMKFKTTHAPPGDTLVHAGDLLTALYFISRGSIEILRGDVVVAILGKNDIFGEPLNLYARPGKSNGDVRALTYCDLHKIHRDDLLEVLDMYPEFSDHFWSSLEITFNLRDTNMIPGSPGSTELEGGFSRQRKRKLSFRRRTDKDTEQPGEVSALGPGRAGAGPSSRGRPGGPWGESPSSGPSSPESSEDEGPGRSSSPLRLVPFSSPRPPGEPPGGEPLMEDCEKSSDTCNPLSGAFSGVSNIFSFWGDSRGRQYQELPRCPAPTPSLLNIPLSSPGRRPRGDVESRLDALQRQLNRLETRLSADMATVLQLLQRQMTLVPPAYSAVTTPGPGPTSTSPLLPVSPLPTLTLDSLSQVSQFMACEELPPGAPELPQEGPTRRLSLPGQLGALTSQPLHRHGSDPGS
Description: Membranes were suspended in assay buffer (50 mM Tris, 10 mM KCl, 1 mM MgCl2, pH 7.4) prior to the experiment. […] Nonspecific binding was determined in the presence of amitriptyline (1 mM). Samples were incubated for 1 hr. at 24° C., followed by rapid filtration.

[1] = Pharmacokinetic assays in mice (iv, po, sc); type: in vivo
VMAT2 = biological target: T2, VMAT2 (Rattus norvegicus, UniProt Q01827); test: [3H]Dopamine ([3H]DA) uptake assay, vesicular preparation; type: biochemical
T2 construct: from tissue; host or cells: rat striatum, isolated synaptic vesicles
T2 sequence (Q01827 whole entry): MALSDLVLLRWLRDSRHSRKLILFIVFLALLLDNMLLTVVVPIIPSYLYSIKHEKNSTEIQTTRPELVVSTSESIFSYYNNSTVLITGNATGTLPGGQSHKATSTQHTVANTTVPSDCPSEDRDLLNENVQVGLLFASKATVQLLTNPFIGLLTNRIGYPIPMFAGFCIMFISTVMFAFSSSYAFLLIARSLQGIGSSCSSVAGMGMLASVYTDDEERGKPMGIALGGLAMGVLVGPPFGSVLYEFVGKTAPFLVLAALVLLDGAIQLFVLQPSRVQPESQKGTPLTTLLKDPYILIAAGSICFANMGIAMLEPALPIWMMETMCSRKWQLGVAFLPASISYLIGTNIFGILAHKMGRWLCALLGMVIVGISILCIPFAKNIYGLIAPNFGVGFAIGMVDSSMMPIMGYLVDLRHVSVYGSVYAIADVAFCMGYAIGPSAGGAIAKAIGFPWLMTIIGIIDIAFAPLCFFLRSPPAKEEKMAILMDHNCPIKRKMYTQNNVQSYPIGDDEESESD

[2] = Microsomal assays, rat liver microsomes; conditions: for half-life at 0.08 µM / CLint scaled at 0.08 µM: female, Sprague-Dawley, rat, pH 7.4; for Microsomal stability assays: Species/Half-life (hr) Rat: rat liver microsomes
Description: (§1) Each plate holds triplicate samples of two controls (0.4 mM) and up to 14 compounds (0.08 mM) in rat and human liver microsomes. Aliquots of each well of the plate (175 μl of each well) were transferred from the master plate into 5 assay plates. […] NADPH regenerating system solution A (6.05 ml, Fisher Scientific, #NC9255727) was combined with NADPH regenerating system solution B (1.21 ml, Fisher Scientific, #NC9016235) in potassium phosphate buffer (15.8 ml, 0.1 M, pH 7.4, 37° C.). The resulting NADPH solution (43.8 μl) was added to each well of all the 96-well assay plates and mixed with pipette briefly making the final protein and compound concentrations respectively: 0.5 mg/ml, 0.08 μM (0.4 μM for controls). Plates were sealed, and all plates except the 0-hr plate were incubated at 37° C., shaken at a speed of 60 rpm. A single assay plate was tested at each time point: 0.5 hr, 1 hr, 2 hr, and 4 hr. At each time point, 437.5 μL of pre-cooled internal standard was added each well of the plate to quench the reaction. […] 120 μl supernatant was transferred to a 96-well plate, centrifuged again and analyzed by UPLC-MS (Waters Inc., Milford, MA). The compounds and internal standard were detected by selected ion recording (SIR).
(§2) The amount of material was measured as a ratio of peak area to the internal standard and graphed. Using the slope from the initial linear portion of this curve, the degradation rate constant is calculated using equation [1]. The rate constant was then used to calculate the compounds half-life in plasma using equation [2].

[3] = Microsomal assays, human liver microsomes; conditions: for half-life at 0.08 µM: both, human, pH 7.4; for Microsomal stability assays: Species/Half-life (hr) Human: human liver microsomes
Description: as §1, §2

in vivo = conditions: male, Sprague-Dawley, rat
Description: (§3) Animals: Oral and intravenous dose pharmacokinetic studies were conducted in tandem in age matched female Swiss Webster mice and/or age matched male Sprague-Dawley rats purchased from Envigo-Harlan. Animals were housed in IVC cages with wood chip bedding and given food and water ad libitum.
(§4) Dose Formulation and Administration Volumes: Hydrochloric acid salts or free base forms were used for formulation.
(§5) Pharmacokinetic Studies: Groups of 6 animals were dosed with formulated test compound by bolus lateral tail vein injection (iv), by oral gavage (po), or by subcutaneous injection (sc) into left hind flank. […] Whole blood samples were collected into microtubes and centrifuged at 4000×g for 2 min. Plasma supernatants were collected and immediately frozen on dry ice, then transferred to a −80° C. freezer to await processing for LC-MS/MS analysis. Typical dose rates were 2 mg/kg iv, 10 mg/kg po, and <30 mg/kg sc.
(§6) Plasma calibrators (usually 0.25, 0.5, 1, 5, 15, 30, 100, 400, 700, and 1000 ng/mL) were generated by the addition of 5 μL of appropriate spiking solution into 100 μL blank plasma followed by vortex mixing. Plasma QC samples (usually 0.75, 25, 500, and 850 ng/mL) were prepared in a similar manner using an independent 2nd analyte stock solution. Calibrators and QCs were stored alongside experimental samples at −80° C. until analysis.
(§7) Analyte and internal standard contained in 5 μL sample injections (15° C. temp.; 1.5 mL 0.1% formic acid in MeOH or 1:1 MeOH: isopropanol injector rinse; 10 sec rinse dip time) were eluted from a guard-protected (2.7 μL, 3×5 mm) Agilent Poroshell 120 EC-C18 (2.7 μL, 3×50 mm; oven temp. 40° C.) analytical column with a 0.1% formic acid in water (mobile Phase-A): 0.1% formic acid in acetonitrile (mobile Phase-B) gradient. […] Positive-mode ESI Turbo V® source and MS gas, temperature, and probe settings were optimized for 0.4 mL flow rate at CUR=35/ISV=4500/TEM=550/GS1=65/GS2=65/CAD=10 with the probe position=7/0.5 horizontal/vertical. […] ISTD voltage potentials were set at DP=70, EP=10, CE=35 and CXP=6. Sample sequences consisted of single randomized experimental sample injections flanked by sets of blanks, calibrators and QCs with QCs interspersed, as needed, to maintain >5% total QC to experimental sample occurrence. High QCs (5,000 and 10,000 ng/mL) were inserted at end of sequence prior to second calibrator injections. Calibration curves were typically constructed by weighted (1/x^2) non-linear regression analysis of analyte/ISTD concentration ratios to analyte/ISTD peak area ratios using AB SciexMultiQuant software (Ver 3.0.31721.0).

[4] = biological target: dopamine transporter (DAT) (Rattus norvegicus, UniProt P23977); test: [3H]DA uptake assay, synaptosomal preparation
dopamine transporter (DAT), sequence (P23977 whole entry): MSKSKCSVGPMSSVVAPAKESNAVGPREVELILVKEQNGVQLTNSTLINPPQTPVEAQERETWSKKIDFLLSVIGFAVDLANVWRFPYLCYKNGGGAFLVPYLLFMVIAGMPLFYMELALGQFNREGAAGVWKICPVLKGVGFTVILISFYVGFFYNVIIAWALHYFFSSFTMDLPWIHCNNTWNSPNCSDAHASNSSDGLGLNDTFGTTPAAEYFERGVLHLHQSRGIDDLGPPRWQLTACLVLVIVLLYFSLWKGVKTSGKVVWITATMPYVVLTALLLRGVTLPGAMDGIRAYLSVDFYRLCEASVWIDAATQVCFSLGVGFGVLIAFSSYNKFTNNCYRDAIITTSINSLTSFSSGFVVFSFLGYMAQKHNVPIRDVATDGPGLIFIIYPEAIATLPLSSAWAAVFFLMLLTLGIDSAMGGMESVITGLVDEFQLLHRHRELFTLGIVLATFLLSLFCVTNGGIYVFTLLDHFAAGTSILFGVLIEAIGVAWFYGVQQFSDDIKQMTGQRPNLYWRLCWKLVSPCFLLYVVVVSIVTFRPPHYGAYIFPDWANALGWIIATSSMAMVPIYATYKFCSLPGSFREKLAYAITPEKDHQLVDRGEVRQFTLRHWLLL
Description: [^3H]DA and [3H]5-HT uptake into striatal synaptosomes was determined to evaluate compound inhibition of the dopamine transporter (DAT) and the serotonin transporter (SERT), respectively. […] Assays were performed in duplicate in a total volume of 500 μL (for DAT assays) or 250 μL (for SERT assays). Aliquots of the synaptosomal suspension (25 μL for DAT, 50 μL for SERT) were added to tubes containing assay buffer and various concentrations of analog (1 nM-100 μM), and incubated at 34° C. for 5 min. Nonspecific uptake was determined in the presence of nomifensine (10 μM) for DAT assays or fluoxetine (10 μM) for SERT assays. […] Samples were placed on ice, and 50 μL of 0.1 μM [^3H]DA (for DAT assays) or 25 μL of 0.1 μM [^3H]5-HT (for SERT assays) was added to each tube, and incubated for 10 min at 34° C. Reactions were terminated by addition of 3 mL of ice-cold assay buffer and subsequent filtration and radioactivity retained by the filters was determined by liquid scintillation spectrometry (Tri-Carb 2100TR liquid scintillation analyzer; PerkinElmer Life and Analytical Sciences, Boston, MA).

[5] = Pharmacokinetic assays in rats (iv, po, sc); conditions: for Bioavail. (F %) Frat / bioavailability: rat; for bioavailability: male, Sprague-Dawley, in vivo
Description: as §3, §4, §5, §6, §7

[6] = system: METH-stimulated locomotor activity; test: METH-stimulated locomotor activity in rats; type: in vivo, rat; conditions: s.c.
Description: A series of VMAT2 inhibitors were synthesized and evaluated for their activity at VMAT2, dopamine transporters (DAT), and serotonin transporters (SERT) using rat striatum, hERG channels expressed by HEK-293 cells, and for their effect on METH-stimulated locomotor activity in rats.
The compounds of the invention were also evaluated for their effect on METH-stimulated locomotor activity in rats.

in vitro [7] = conditions: female, Sprague-Dawley, rat, pH 7.4
Description: as §1, §2

in vitro [8] = conditions: both, human, pH 7.4
Description: as §1, §2

[9] = female, Sprague-Dawley, 0.08 µM, pH 7.4
Description: as §1, §2

[10] = both, 0.08 µM, pH 7.4
Description: as §1, §2

METH self-administration = conditions: in vivo; cited from earlier work
rat striatal slices = conditions: cited from earlier work
[11] = [3H]dofetilide binding, HEK-293 membranes, mean of n>=3 unless N given
[12] = [3H]DA uptake, rat vesicular preparation, mean of n>=3 unless N given, read-out: VMAT2 (rat) Inhibition: Mean Ki
[13] = Table 4, mean, minimally n = 3, read-out: VMAT2 (rat) Inhibition: Mean Ki

Row | Structure (SMILES) | Bioavail. (F %) Fmice [1] | Ki (VMAT2) [nM] | Ki (hERG channel; Table 4, mean, minimally n = 3) [nM] | CLint scaled at 0.08 µM [2] [mL/min/kg] | Ki [4] [nM] | other results
1 | CC(Cc1ccccc1)NCCCc1ccc(F)cc1 (stereo not shown) [Compound 249] | Fmice: 2.0% | 6 | – | – | – | Ki (hERG channel; [11]): 3000 nM; half-life at 0.08 µM [2]: 18 min; half-life at 0.08 µM [3]: 72 min
2 | CC(Cc1ccc(F)cc1)NCCCc1ccc(F)cc1 (stereo not shown) [Compound 190] | Fmice: 5% | 9 | – | – | – | –
3 | CC(Cc1ccccc1)NCCCc1ccncc1 (stereo not shown) [Compound 204] | Fmice: 10% (prelim rat done) | – | – | – | – | –
4 | CC(Cc1ccc(F)cc1)NC(=O)CCc1ccc(C#N)cc1 (stereo not shown) [Compound 294] | – | 40600 | – | – | – | half-life at 0.08 µM [2]: 48 min; half-life at 0.08 µM [3]: 48 min
5 | CC(Cc1ccc(F)c(F)c1)NCCCc1cccc(NC(N)=O)c1 (stereo not shown) [Compound 235] | – | 4 | 4380 | 71 | 1290 | Ki (hERG channel; [11]): 4380 nM; bioavailability (in vivo; po): 8%
6 | CC(Cc1ccc(F)c(F)c1)NCCCc1ccc(NC(N)=O)cc1 (stereo not shown) [Compound 229] | – | 36 | 4290 | 41 | 1530 | Ki (hERG channel; [11]): 4290 nM; Bioavail. (F %) Frat [5]: Frat: 22%; bioavailability (in vivo; po): 94%
7 | CC(Cc1ccc(-c2cncnc2)cc1)NCCCc1ccc(F)cc1 (stereo not shown) [Compound 196] | Fmice: 3.4% (prelim rat done) | 8 | – | – | – | –
8 | CC(Cc1ccccc1)NCCCc1ccc(O)cc1 (stereo not shown) [Compound 223] | Fmice: 8.9% | – | – | – | – | –
9 | CC(Cc1ccc(F)cc1)NCCCc1ccc(CN)cc1 (stereo not shown) [Compound 285] | – | 461 | – | – | – | half-life at 0.08 µM [2]: > 240 min; half-life at 0.08 µM [3]: > 240 min
10 | COc1ccc(CCCN[C@H](C)Cc2ccccc2)cc1.Cl [Compound 9] | – | – | – | – | – | METH-stimulated locomotor activity ([6]; 3 mg/kg): significant reduction
11 | Fc1ccc(CCCNC(Cc2ccccc2)Cc2ccccc2)cc1 [Compound 292] | – | 346 | – | – | – | half-life at 0.08 µM (in vitro [7]): < 6 min; half-life at 0.08 µM (in vitro [8]): 36 min
12 | CC(Cc1ccc(F)cc1)NC(=O)CCc1ccc([N+](=O)[O-])cc1 (stereo not shown) [Compound 293] | – | 10800 | – | – | – | half-life at 0.08 µM (in vitro [7]): 30 min; half-life at 0.08 µM (in vitro [8]): 24 min
13 | CC(Cc1ccc(F)c(F)c1)NCCCc1ccc(C(N)=O)cc1 (stereo not shown) [Compound 231] | – | – | 3500 | 23 | 2750 | Ki (hERG channel; [11]): 3500 nM; bioavailability ([5]; po, 10 mg/kg): 62%; bioavailability ([5]; sc): 84%; Bioavail. (F %) Frat [5]: Frat: 80%; Ki (VMAT2; [12]): 29 nM
14 | CC(Cc1ccc(C(F)(F)F)cc1)NCCCc1ccc(O)cc1 (stereo not shown) [Compound 209] | – | – | – | – | – | Microsomal stability assays: Species/Half-life (hr) Rat [2]: 0.2 h; Microsomal stability assays: Species/Half-life (hr) Human [3]: 0.1 h
15 | CC(Cc1ccccc1)NCCCc1ccc(S)cc1 (stereo not shown) [Compound 216] | Fmice: 0.9% | – | – | – | – | Microsomal stability assays: Species/Half-life (hr) Rat ([2]; cell prints %): Rat: 0.3%
16 | CC(Cc1ccc(F)c(F)c1)NCCCc1ccc(S(N)(=O)=O)cc1 (stereo not shown) [Compound 230] | – | 42 | 1030 | < 17 | 8240 | Ki (hERG channel; [11]): 1030 nM; Bioavail. (F %) Frat [5]: Frat: >100%; bioavailability (in vivo; po): 94%; bioavailability (in vivo; sc): 44%
17 | OCC(Cc1ccc(F)cc1)NCCCc1ccc(Br)cc1 (stereo not shown) [Compound 154] | – | – | – | – | – | Microsomal stability assays: Species/Half-life (hr) Rat [9]: 0.1 h
18 | CC(Cc1ccccc1)NCCCc1ccc(OC(F)(F)F)cc1 (stereo not shown) [Compound 258] | – | 16 | – | – | – | Ki (hERG channel; [11]): 90 nM; half-life at 0.08 µM [3]: > 240 min
19 | FCC(Cc1ccc(-c2cncnc2)cc1)NCCCc1ccc(F)cc1 (stereo not shown) [Compound 68] | – | 5 | – | – | – | Microsomal stability assays: Species/Half-life (hr) Human [10]: 0.1 h
20 | CC(Cc1ccccc1)NCCCc1ccc(N)cc1 (stereo not shown) [Compound 220] | Fmice: quant; Frat: quant | – | – | – | – | Bioavail. (F %) Frat [5]: Fmice: quant; Frat: quant

Row | Structure (SMILES) | Bioavail. (F %) Fmice [1] | Ki (VMAT2) [nM] | Ki (hERG channel; Table 4, mean, minimally n = 3) [nM] | CLint scaled at 0.08 µM [2] [mL/min/kg] | Ki [4] [nM] | other results
21 | CC(Cc1ccc(F)c(F)c1)NCCCc1cccc(C(N)=O)c1 (stereo not shown) [Compound 237] | – | – | 4780 | 30 | 3120 | Ki (hERG channel; [11]): 4780 nM; bioavailability ([5]; po, 10 mg/kg): 2%; Ki (VMAT2; [12]): 32 nM
22 | CC(Cc1ccccc1)NCCCc1ccc(C(F)(F)F)cc1 (stereo not shown) [Compound 194] | Fmice: 11.9% | – | – | – | – | –
23 | CC(Cc1ccccc1)NCCCc1ccc(S)cc1 (stereo not shown) [Compound 260] | Fmice: 0.9% | – | – | – | – | –
24 | CC(Cc1ccc(F)c(F)c1)NCCCc1ccc2nc[nH]c2c1 (stereo not shown) [Compound 228] | – | 41 | 6770 | 48 | 3040 | Ki (hERG channel; [11]): 6770 nM; bioavailability ([5]; po, 10 mg/kg): 6%; Bioavail. (F %) Frat [5]: Frat: 5%
25 | CC(Cc1ccc(F)c(F)c1)NCCCc1ccc2nn[nH]c2c1 (stereo not shown) [Compound 312] | – | 8 | 3000 | 115 | 1900 | bioavailability ([5]; po, 10 mg/kg): 7%; bioavailability ([5]; sc): 42%
26 | CC(Cc1ccc2nccnc2c1)NCCCc1ccc(C(N)=O)cc1 (stereo not shown) [Compound 307] | – | 17 | 21000 | 51 | 8890 | bioavailability (in vivo; po): 8%; bioavailability (in vivo; sc): > 100%
27 | O=[N+]([O-])c1ccc(CCCNC(CF)Cc2ccc(F)cc2)cc1 (stereo not shown) [Compound 123] | – | – | – | – | – | Ki (VMAT2; [12]): 44 nM; Microsomal stability assays: Species/Half-life (hr) Rat [2]: 0.4 h; Microsomal stability assays: Species/Half-life (hr) Human [3]: 1.2 h
28 | COc1ccc(CCCN[C@@H](C)Cc2ccccc2)cc1 [Compound 313] | – | 72 | 4160 | 978 | – | Bioavail. (F %) Frat ([5]; route not stated): Frat: 3.4%; half-life at 0.08 µM [2]: < 6 min
29 | CC(Cc1ccc(-c2cccnc2)cc1)NCCCc1ccc(F)cc1 (stereo not shown) [Compound 192] | Fmice: 6.7% | – | – | – | – | –
30 | CC(Cc1cccc(F)c1)NCCCc1ccc(C(N)=O)cc1 (stereo not shown) [Compound 309] | – | – | 12000 | 57 | 1630 | bioavailability ([5]; po, 10 mg/kg): 5%; bioavailability ([5]; sc): 76%; Ki (VMAT2; [13]): 6 nM
31 | CN1[C@@H](CCc2ccccc2)CCC[C@H]1CCc1ccccc1 [Lobelane] | – | – | – | – | – | METH self-administration (METH self-administration): decreases METH self-administration; METH-evoked DA overflow (rat striatal slices): decreases METH-evoked DA overflow
32 | CC(Cc1ccc(F)c(F)c1)NCCCc1ccc2[nH]ncc2c1 (stereo not shown) [Compound 234] | – | 54 | 1020 | 114 | 703 | Ki (hERG channel; [11]): 1020 nM
33 | CC(Cc1cccc(N)c1)NCCCc1ccc(F)cc1 (stereo not shown) [Compound 310] | – | 5 | 2730 | 74 | 2230 | –
34 | COc1ccc(CCCN[C@@H](C)Cc2ccccc2)cc1.Cl [Compound 10, (S)-3-(4-methoxyphenyl)-N-(1-phenylpropan-2-yl)propan-1-amine] | – | – | – | – | – | METH-stimulated locomotor activity ([6]; 17 mg/kg): significant reduction
35 | CC(Cc1ccc(F)cc1)NCCCc1ccncc1 (stereo not shown) [Compound 176] | Fmice: ~22% (prelim rat done) | – | – | – | – | Ki (hERG channel; [11]): 5100 nM
36 | CC(Cc1ccc(F)c(F)c1)NCCCc1ccc2cnoc2c1 (stereo not shown) [Compound 311] | – | 51 | 4200 | 117 | 2720 | –
37 | CC(Cc1ccncc1)NCCCc1ccc(F)cc1 (stereo not shown) [Compound 187] | Fmice: 9.4% | – | – | – | – | half-life at 0.08 µM [3]: > 240 min
38 | CCC(Cc1ccccc1)NCCCc1ccc(O)cc1 (stereo not shown) [Compound 207] | – | – | – | – | – | Microsomal stability assays: Species/Half-life (hr) Rat [2]: Rat: 0.1 hr Human: 0.1 hr; Microsomal stability assays: Species/Half-life (hr) Human [3]: Rat: 0.1 hr Human: 0.1 hr
39 | CC(Cc1cc(F)cc(F)c1)NCCCc1ccc(C(N)=O)cc1 (stereo not shown) [Compound 300] | – | – | 8100 | 21 | 1570 | Ki (VMAT2; [13]): 6 nM
40 | CC(Cc1ccc(F)c(F)c1)NCCCc1ccc2nonc2c1 (stereo not shown) [Compound 227] | – | 49 | – | – | – | Ki (hERG channel; [11]): 650 nM; Bioavail. (F %) ([5]; species not given): No detection
